Data reported in publication PMC11631053, “A receptor-based assay to study the sweet and bitter tastes of sweeteners and binary sweet blends: the SWEET project” (Chemical Senses, 2024).
Marks after values point to notes of the source that are not given here. Blank lines part the entries; values can stand above or below the molecule they belong to.

Columns and labels:
TAS1R2/TAS1R3 = biological target: T1, TAS1R2/TAS1R3 (Homo sapiens, UniProt Q7RTX0+Q8TE23); assay: Calcium mobilization assay, HEK293T-Gα16gust44 cells expressing the sweet taste receptor; settings: sweet compound alone
T1 sequence (Q8TE23 20-839): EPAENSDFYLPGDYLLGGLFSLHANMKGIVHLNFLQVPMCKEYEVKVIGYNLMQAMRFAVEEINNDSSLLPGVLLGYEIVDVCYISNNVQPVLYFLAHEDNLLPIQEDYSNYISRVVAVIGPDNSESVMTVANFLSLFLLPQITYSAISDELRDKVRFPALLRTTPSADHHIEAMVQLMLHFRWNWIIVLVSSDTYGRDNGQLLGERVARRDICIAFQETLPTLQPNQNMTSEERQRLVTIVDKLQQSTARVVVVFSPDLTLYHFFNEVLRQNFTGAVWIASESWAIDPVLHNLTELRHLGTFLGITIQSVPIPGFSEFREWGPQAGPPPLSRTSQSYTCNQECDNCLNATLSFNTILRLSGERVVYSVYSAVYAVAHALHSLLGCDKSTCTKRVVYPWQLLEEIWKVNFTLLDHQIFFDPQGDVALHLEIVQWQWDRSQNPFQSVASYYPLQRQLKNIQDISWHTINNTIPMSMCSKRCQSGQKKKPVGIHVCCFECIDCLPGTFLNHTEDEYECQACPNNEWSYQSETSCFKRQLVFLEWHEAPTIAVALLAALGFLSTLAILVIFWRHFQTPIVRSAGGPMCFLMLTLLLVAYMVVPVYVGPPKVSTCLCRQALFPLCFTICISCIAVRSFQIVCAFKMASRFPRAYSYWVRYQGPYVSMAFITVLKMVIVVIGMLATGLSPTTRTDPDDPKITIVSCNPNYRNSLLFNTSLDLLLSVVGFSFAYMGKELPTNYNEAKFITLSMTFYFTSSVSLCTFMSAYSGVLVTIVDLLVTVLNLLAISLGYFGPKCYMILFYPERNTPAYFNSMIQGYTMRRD
T1 sequence (Q7RTX0 21-852): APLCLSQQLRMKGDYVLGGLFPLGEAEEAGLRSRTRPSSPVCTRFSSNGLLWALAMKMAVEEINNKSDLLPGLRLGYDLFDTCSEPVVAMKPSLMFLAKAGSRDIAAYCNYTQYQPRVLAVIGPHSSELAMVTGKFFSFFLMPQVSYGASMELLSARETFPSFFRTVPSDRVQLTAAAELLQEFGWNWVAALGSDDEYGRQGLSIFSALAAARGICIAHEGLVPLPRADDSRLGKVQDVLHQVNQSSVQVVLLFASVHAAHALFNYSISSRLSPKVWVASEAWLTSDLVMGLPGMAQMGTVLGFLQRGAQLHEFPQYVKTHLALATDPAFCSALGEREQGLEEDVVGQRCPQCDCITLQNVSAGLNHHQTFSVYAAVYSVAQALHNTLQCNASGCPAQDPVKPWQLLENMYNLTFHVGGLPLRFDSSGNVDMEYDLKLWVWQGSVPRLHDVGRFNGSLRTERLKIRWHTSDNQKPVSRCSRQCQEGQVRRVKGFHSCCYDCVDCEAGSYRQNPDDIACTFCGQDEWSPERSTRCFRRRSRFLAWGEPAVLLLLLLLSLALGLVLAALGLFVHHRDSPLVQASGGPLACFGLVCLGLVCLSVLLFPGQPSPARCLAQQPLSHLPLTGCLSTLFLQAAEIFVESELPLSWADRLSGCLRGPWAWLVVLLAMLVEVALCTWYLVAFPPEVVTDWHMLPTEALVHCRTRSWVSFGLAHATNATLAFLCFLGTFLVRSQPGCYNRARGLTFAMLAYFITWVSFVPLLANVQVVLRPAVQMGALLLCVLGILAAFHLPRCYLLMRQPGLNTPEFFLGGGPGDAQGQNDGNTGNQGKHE
Method: Different concentration ranges were tested depending on the injected sweet compound. […] All of the concentration-receptor combinations were measured in triplicate, and each experiment was repeated at least 3 times. The Ca^2+ change was expressed as a fractional change in fluorescent light intensity: ΔF/F = (F − F0)/F0, where F was the fluorescent light intensity at each point, and F0 was the value of fluorescent light emitted prior to stimulus application. To calculate dose–response relationships, the changes in fluorescence upon stimulus application were averaged, mock-subtracted and baseline-corrected. The resulting obtained dose–response data were adjusted by using a 4-parameter logistic equation.

[1] = sucrose = 1; ref Schiffman and Gatlin (1993); cited from earlier work
TAS2R1 = settings: ref Meyerhof et al. 2010; cited from earlier work
TAS2R8 = settings: ref Meyerhof et al. 2010; cited from earlier work

Max ΔF/F0 (TAS1R2/TAS1R3; maximal signal amplitude): 0.10 ± 0.03
Molecule: OC[C@H]1O[C@@](CO)(O[C@H]2O[C@H](CO)[C@@H](O)[C@H](O)[C@H]2O)[C@@H](O)[C@@H]1O [Sucrose, reference compound]
Sweetness potency [1]: 1^g

Molecule: O=S(=O)(O)NC1CCCCC1 [cyclamate]
concentration at which activation of TAS2R1 occurs (TAS2R1): approximately 30 mM
concentration at which activation of TAS2R8 occurs (TAS2R8): approximately 30 mM

EC50 (TAS1R2/TAS1R3; read-out: EC50 value): 12 ± 2 µM
B1: thaumatin (protein)
chain: ATFEIVNRCSYTVWAAASKGDAALDAGGRQLNSGESWTINVEPGTNGGKIWARTDCYFDDSGSGICKTGDCGGLLRCKRFGRPPTTLAEFSLNQYGKDYIDISNIKGFNVPMDFSPTTRGCRGVRCAADIVGQCPAKLKAPGGGCNDACTVFQTSEYCCTTGKCGPTEYSRFFKRLCPDAFSYVLDKPTTVTCPGSSNYRVTFCPTA
modifications: 8 disulfide bonds; natural (E957) thaumatin is a mixture of mainly thaumatin I and II
